{"source": "ChEMBL document CHEMBL4819020", "about": "“Discovery of [1,2,4]triazolo[1,5-a]pyrimidines derivatives as potential anticancer agents” (Eur J Med Chem, 2021)", "key": {"[1]": {"test_system": "MGC-803", "experiment": "Induction of apoptosis in human MGC-803 cells assessed as early apoptotic cells at 3 uM measured after 48 hrs by Annexin V-FITC/PI staining based flow cytometry method (reference value: 0.992 %)", "assay_type": "functional"}, "[2]": {"test_system": "MGC-803", "experiment": "Induction of apoptosis in human MGC-803 cells assessed as late apoptotic cells at 0.75 uM measured after 48 hrs by Annexin V-FITC/PI staining based flow cytometry method (reference value: 3.10 %)", "assay_type": "functional"}, "[3]": {"test_system": "MGC-803", "experiment": "Induction of apoptosis in human MGC-803 cells assessed as early apoptotic cells at 1.5 uM measured after 48 hrs by Annexin V-FITC/PI staining based flow cytometry method (reference value: 0.992 %)", "assay_type": "functional"}, "[4]": {"test_system": "MGC-803", "experiment": "Cell cycle arrest in human MGC-803 cells assessed as accumulation of cells in G0/G1 phase at 0.75 uM measured after 24 hrs by PI staining based flow cytometry assay (reference value: 49.39%)", "assay_type": "functional"}, "[5]": {"test_system": "MGC-803", "experiment": "Induction of apoptosis in human MGC-803 cells assessed as necrotic cells at 0.75 uM measured after 48 hrs by Annexin V-FITC/PI staining based flow cytometry method (reference value: 3.60 %)", "assay_type": "functional"}, "[6]": {"test_system": "MGC-803", "experiment": "Induction of apoptosis in human MGC-803 cells assessed as decrease in Bcl-2 expression at 0.75 to 3 uM measured after 48 hrs by western blot assay", "assay_type": "functional, cell-based", "details": "dose 0.75-3 µM"}, "[7]": {"test_system": "MGC-803", "experiment": "Cell cycle arrest in human MGC-803 cells assessed as accumulation of cells in S phase at 0.75 uM measured after 24 hrs by PI staining based flow cytometry assay (reference value: 18.03%)", "assay_type": "functional"}, "[8]": {"test_system": "MGC-803", "experiment": "Induction of cell cycle arrest in human MGC-803 cells assessed as increase in p27 expression at 0.75 to 3 uM measured after 24 hrs by western blot assay", "assay_type": "functional, cell-based", "details": "dose 0.75-3 µM"}, "[9]": {"test_system": "MGC-803", "experiment": "Antiproliferative activity against human MGC-803 cells assessed as cell viability measured after 24 to 72 hrs by MTT assay", "assay_type": "functional, cell-based", "details": "dose 0.75-3 µM, time 24-72 hrs"}, "[10]": {"test_system": "MGC-803", "experiment": "Induction of apoptosis in human MGC-803 cells assessed as viable cells at 0.75 uM measured after 48 hrs by Annexin V-FITC/PI staining based flow cytometry method (reference value: 92.3 %)", "assay_type": "functional", "details": "read-out: Activity"}, "[11]": {"experiment": "Toxicity in mouse assessed as effect on heart at 2 mg/kg, ig measured after 2 weeks by H and E staining based microscopic method", "assay_type": "organism-based", "details": "in vivo, po, 336 h"}}, "data": [{"smiles": "Cc1cc(Nc2ccn(Cc3nc(C)c4ccccc4n3)n2)n2nc(SCc3ccc(Br)cc3)nc2n1", "values": [{"measurement": "Activity", "setting": "[1]", "result": 19.3, "unit": "%"}, {"measurement": "Activity", "setting": "[2]", "result": 5.23, "unit": "%"}, {"measurement": "Activity", "setting": "[3]", "result": 6.85, "unit": "%"}, {"measurement": "Activity", "setting": "[4]", "result": 56.2, "unit": "%"}, {"measurement": "Activity", "setting": "[5]", "result": 3.46, "unit": "%"}, {"measurement": "Activity", "setting": "[6]", "result": "Dose-Dependent Effect"}, {"measurement": "Activity", "setting": "[7]", "result": 22.83, "unit": "%"}, {"measurement": "Activity", "setting": "[8]", "result": "Dose-Dependent Effect"}, {"measurement": "Activity", "setting": "[9]", "result": "Dose-Dependent Effect"}, {"measurement": "viability at 0.75 µM", "setting": "[10]", "result": 89.1, "unit": "%"}, {"measurement": "Activity", "setting": "[11]", "result": "Non-Toxic"}]}]}
